Measured values as given in US20050025795A1, “Compounds, Compositions and methods for insect control” (The Procter & Gamble Company, priority 2003, published 2005).
Counter-ions that a name gives are not always drawn. Like-named read-outs stand apart in the source and are kept apart here. Marks after values point to notes of the source that are not given here.

Experiments:
roaches = assay type: in vivo, cockroaches
Experimental: An ˜500 mL jar is coated at the top with a thin film of petroleum jelly and covered with a plastic petri dish as a lid. […] The filter paper is bent in half to form a ‘tent’, as shown, so the roaches are not forced to contact the filter paper. The lid is removed, and a compound or composition to be tested is added to the top of the paper, at the bend. The lid is replaced and the insects monitored for activity at 15, 30, 45 minutes, then 1, 2, 4 and 24 hours post exposure.
This is done by taking multiple testes and plotting them on a dose-response curve such as the GraphPad® Prism® computer program. This program interpolates to find the midpoint of any sigmoidal dose-response curve.
The data in Table 1 can graphed as a sigmoidal dose response, much the same as any other biological data. […] The mid-Point of the dose-response curve is given by the computer and used to compare potencies. […] It is also necessary to understand the range of the testing. While the lower limit is in the 1 to 3 microliter range, the upper limit is about 250 microliters. Adding more material than that to the filter paper will allow the substance to drip onto the glass, where contact with the insects might occur. […] Several compounds are tested in a 2 liter (L) jar rather than the 0.5 L jars which are the primary assay.

[1] = system: insects of the blattella species; experiment: Direct contact spray knockdown; assay type: in vivo
Source text: A formula is created consisting exclusively of ethylene glycol diformate. This diformate is placed in aerosol cans and pressurized with carbon dioxide as propellant. This material, when sprayed on insects of the blattella species, results in knockdown in under 30 seconds. When administered in the vapor phase according to Example 1, in a 500 milliliter jar, 15 microliters of the formula in the vapor phase kills all the insects in one hour.
Raid (#271) Roach and Ant Killer and Treatment is purchased and repeatedly tested in the assay of Example 1, and in a direct contact test. It did knowndown both the peripleneta species (17.2+/−3.2 seconds) and the blattella species (kill time 16 seconds) when directly sprayed on the insects.

[2] = 5 µL, ~500 mL jar, 6 insects in this jar

Molecule: O=COC1CCCC1 [compound 2-2, cyclopentyl formate]
- 24 hr LD50 (vapor phase) (roaches; ~500 mL jar): 17 microliters per 500 milliliters headspace

Molecule: (R) (−) carvone
- Fraction of the roaches that die in 24 hrs (roaches; individually tested at 29 milligrams/500 milliliters, 24 hrs): ⅕

Molecule: C=CCc1ccc(O)c(OC)c1 [eugenol, reference compound]
- LD50 (vapor phase) (roaches; ~500 mL jar): > 300 milligrams/500 milliliters

Molecule: Cc1coc2c1CC[C@@H](C)C2 [(+)-Menthofuran, (+) menthofuran]
- LD50 (vapor phase) in a 2 L jar (roaches; 2 L jar): 15 microliters per 2 L headspace
- Percent Dead Only at 4 hours (roaches; [2]): 33%*
- Percent Dead at 24 hours (roaches; [2]): 33%*
- Percent Distressed or Dead at 4 hours (roaches; [2]): 33%*
- Percent Dead Only at 4 hours (roaches; 10 µL (repeat), ~500 mL jar): 40%
- Percent Dead at 24 hours (roaches; 10 µL (repeat), ~500 mL jar): 40%
- Percent Distressed or Dead at 4 hours (roaches; 10 µL (repeat), ~500 mL jar): 40%
- Percent Dead Only at 4 hours (roaches; 10 µL, ~500 mL jar): 100%
- Percent Dead at 24 hours (roaches; 10 µL, ~500 mL jar): 80%
- Percent Distressed or Dead at 4 hours (roaches; 10 µL, ~500 mL jar): 100%
- Percent Dead Only at 4 hours (roaches; 15 µL, ~500 mL jar): 100%
- Percent Dead at 24 hours (roaches; 15 µL, ~500 mL jar): 100%
- Percent Distressed or Dead at 4 hours (roaches; 15 µL, ~500 mL jar): 100%
- Percent Dead Only at 4 hours (roaches; 20 µL, ~500 mL jar): 100%
- Percent Dead at 24 hours (roaches; 20 µL, ~500 mL jar): 100%
- Percent Distressed or Dead at 4 hours (roaches; 20 µL, ~500 mL jar): 100%
- Percent Dead Only at 4 hours (roaches; 33 µL, ~500 mL jar): 100%
- Percent Dead at 24 hours (roaches; 33 µL, ~500 mL jar): 100%
- Percent Distressed or Dead at 4 hours (roaches; 33 µL, ~500 mL jar): 100%
- LD50 (vapor phase) (roaches; ~500 mL jar): 7.2 microliters/500 milliliters headspace

Molecule: O=COCCOC=O [ethylene glycol diformate]
- Insects killed in the vapor phase (roaches; 15 microliters of the formula, 500 milliliter jar, one hour): all
- LD50 (vapor phase) (roaches; in a 500 milliliter jar): approximately 7.5 microliters
- Relative potency within the diformate ester series (in words) (roaches; in vivo): most potent compound of the series
- Knockdown time when sprayed on insects [1]: under 30 seconds

Molecule: CC(C)(C)OC=O [compound 2-1, tert-butyl formate]
- 24 hr LD50 (vapor phase) (roaches; ~500 mL jar): 40 microliters per 500 milliliters headspace
